For one experiment, the system named is dopaminergic neurons. Kind of experiment: DA neurodegeneration analysis in α-syn transgenic worms. Format: in vivo, C. elegans. Conditions: for protection from α-syn-induced dopaminergic neurodegeneration: 7 day old worms overexpressing human cDNA with α-syn. On the procedure: For the DA neurodegeneration analysis, strain UA54 [baEx45; Pdat-1::α-syn, Pddat-1::gfp, Pdat-1 j::CD, rol-6 (su1006)], UA90 [baEx69; Pdat-1::α-syn, Pdat-1j::CD D295R, rol-6 (su1006)], UA91 [baEx70; Pdat-1::α-syn, Pdat-1::CD F2291, rol-6 (su1006)], UA53 [baEx44; Pdat-1::α-syn, rol-6 (su1006)], and UA55 [baEx46; Pdat-1::α-syn, Pdat-1::CL, rol-6 (su1006)] were generated by injecting 50 μg/ml of expression plasmid containing the human cathepsin cDNA and 50 μg/ml of rol-6 into an integrated line of UA44 [baInl1; Pdat-1::α-syn, (Cao et al., J. Neurosci. 25:3801-12 (2005))]. Three stable lines were randomly selected for neurodegeneration analysis. The 6 anterior DA neurons (4 CEP and 2 ADE neurons) of 30 animals/trial were examined for neurodegeneration when the animals were 7 days old. 90 animals from each of three CD (or CD D295R, CD F229I, CB, and CL) transgenic lines were analyzed (3 lines×3 trials of 30 animals/trial=270 total animals scored).
It was further investigated whether human CD attenuates the loss of dopaminergic neurons in a C. elegans model of α-syn-induced neurodegeneration (Cooper et al., Science 313:324-8 (2006)).

The test system of another experiment is SHSY5Y cells. Kind of experiment: Cell death/survival after transfection, trypan blue exclusion. The class given is cell-based, human. On the procedure:
(§1) Cell culture and transfection: The human neuroblastoma SHSY5Y cells were transfected in triplicate by vector alone, GFP-α-syn, pCMV-CD, or co-transfected by GFP-α-syn (or A53T, MOP, Y125A mutant α-syn) and pCMV-CD (or mutant CD) by Amaxa method as described by the vendor. Transfection efficiency was ˜80% as assessed by cells with or without GFP. Seventy-two (72) hours after transfection, cells were harvested. For chloroquine (10 μM) treatment, the chemicals were added 48 hours after transfection, cells were harvested […]. Live cells were counted by trypan blue exclusion. Relative cell survival was calculated as number of live cells after transfection by pCMV-CD and/or GFP-α-syn divided by live cells after transfection by vector alone. Elevated expression of α-syn or cathepsins was confirmed by Western blot analyses using whole cell extracts.
Overexpression of CD is neuroprotective against α-syn toxicity in mammalian cells. Excessive α-syn induces neuron death in cell cultures, and in a variety of genetic and viral delivery based animal models. To examine the potential of elevating CD level as a means to reduce α-syn-induced cell death, human neuroblastoma SHSY5Y cells were transfected with α-syn, in the absence or presence of increased CD expression (FIG. 4B). Similar to previous studies of α-syn overexpression in yeast, worms and rat neurons, it was observed that overexpression of wildtype α-syn induced robust cell death in SHSY5Y cells.
α-syn point mutation at the major CD cleavage site results in resistance to CD neuroprotection. α-syn is rich in hydrophobic amino acids (52%) and is natively unfolded. CD has a known specificity in recognizing hydrophobic residues. Although α-syn contains many putative CD cleavage sites, the main cleavage occurs at A124-Y125 (Hossain et al., J. Alzheimers Dis. 3:577-584 (2001)). It was observed that CD is also protective against PD-causing mutant α-syn induced-cell death in SHSY5Y cells (FIG. 4D). […] Furthermore, CD is ineffective at attenuating chloroquine- or staurorosporine-induced cell death (FIG. 4D).

Another experiment concerns α-syn. Kind of experiment: Western blot of α-syn after CD co-transfection. Format: cell-based, human. Conditions: SHSY5Y cells, co-expression with α-syn-GFP. On the procedure: as §1
Western blot: Wildtype and CD−/− cortex (n≧3 each genotype) were homogenized in 10 volumes of ice-cold lyses buffer (50 mM Tris-HCl pH 7.4, 175 mM NaCl, 5 mM EDTA), sonicated for 10 seconds, add TritonX-100 to 1% and incubated for 30 minutes on ice. Homogenates were then centrifuges at 15,000 g for 15 min at 4° C. to separate supernatants (fractions soluble in 1% TritonX-100) and pellets (TritonX-100-insoluble fractions) as described in Giasson et al., Neuron 34:521-33 (2002). Pellets were resuspended in lyses buffer containing 2% SDS. […]
In general terms: A western blot detects proteins with antibodies after separation by electrophoresis.

“Also recorded” adds a separate entry of the source.

As for “D295R: enzymatic mutant of CD, human cDNA overexpressed in transgenic worms”, the “protection from α-syn-induced dopaminergic neurodegeneration” value with dopaminergic neurons was “did not attenuate dopaminergic neuron death; also recorded: did not have the same effect as the wildtype CD”.
The same measure, in the same setting: the result for “CL: related human cathepsin gene product, representative lysosomal cysteine protease, overexpressed in worms” reads “did not attenuate dopaminergic neuron death; also recorded: did not have the same effect as the wildtype CD”.
For the substance “CD: principal lysosomal aspartate protease; human CD overexpressed by transfection or transgene (pCMV-CD)”, the staurosporine-induced cell death result with SHSY5Y cells (2 μM staurosporine) was “ineffective; also recorded: does not reduce”. Further, in the experiment with SHSY5Y cells (10 μM chloroquine), the chloroquine-induced cell death result was “ineffective; also recorded: does not reduce”. For the same substance, the “A30P mutant α-syn-induced cell death” value in the experiment on SHSY5Y cells (co-transfection with A30P mutant α-syn) is listed as “protective; also recorded: reduced”. Besides, the “A53T mutant α-syn-induced cell death” value in the experiment with SHSY5Y cells (co-transfection with A53T mutant α-syn) is “protective; also recorded: reduced”. Also, the “Y125A mutant α-syn-induced cell death” value in the experiment on SHSY5Y cells (co-transfection with Y125A mutant α-syn (CD cleavage site)) is given as “resists neuroprotection by elevated CD; also recorded: does not reduce”. The “protection against α-syn overexpression-induced cell death” value in the experiment on SHSY5Y cells (wildtype GFP-α-syn co-transfection, 72 hours, viable cells by trypan blue) is listed as “provided significant protection; also recorded: protected against α-syn overexpression-induced cell death”. In addition, the “truncation/cleavage of α-syn-GFP” value in the experiment on α-syn is recorded as “produced a cleavage product of α-syn-GFP; also recorded: resulted in truncation of α-syn-GFP”. Moreover, in the experiment with dopaminergic neurons, the “protection from α-syn-induced dopaminergic neurodegeneration” value was “significantly protected against dopaminergic neurodegeneration; also recorded: protects worms from neurodegeneration”. The “percentage of worms exhibiting the wildtype neuronal complement of all 6 anterior DA neurons” value in the experiment with dopaminergic neurons (7 day old worms overexpressing α-syn in DA neurons, n=270, α-syn alone 15-16%) came to 30%.

For the origin of these results see US20110064721A1, “CATHEPSIN-D NEUROPROTECTION” (THE UAB RESEARCH FOUNDATION, priority 2007, published 2011).
